Our source for the viability values is paper PMC11995724, “Antibiotic target discovery by integrated phenotypic and activity-based profiling of electrophilic fragments” (Cell chemical biology, 2025).

Each structure is given as a SMILES string.

The data set is described as follows: in vitro. As to conditions: human, hek293t cells.
As a reminder, the viability is a read-out of living cells in per cent, often relative to untreated cells. As for `C=CC(=O)N1CCC(C(=O)N2CC=CCC2)(c2ccccc2)CC1` [3-J06, 1-[4-phenyl-4-(1,2,3,6-tetrahydropyridine-1-carbonyl)piperidin-1-yl]prop-2-en-1-one], the viability at 48 h, 25 µM amounted to 61.7%.

For `C=CC(=O)N(C)CC(=O)Nc1ccc(N2CCOCC2=O)c(C)c1` [3-J07, N-methyl-N-({[3-methyl-4-(3-oxomorpholin-4-yl)phenyl]carbamoyl}methyl)prop-2-enamide], the viability at 48 h, 25 µM was determined as 51.4%. The value for `C=CC(=O)N1CCC(C(=O)NCc2ccc(C(N)=O)cc2)CC1` [3-J08, N-[(4-carbamoylphenyl)methyl]-1-(prop-2-enoyl)piperidine-4-carboxamide] was 82.2%. `C=CC(=O)NCCc1nnc(-c2ccccc2)o1` [3-J09, N-[2-(5-phenyl-1,3,4-oxadiazol-2-yl)ethyl]prop-2-enamide]: the viability at 48 h, 25 µM is 70.8%. With `C=CC(=O)NCc1nc2ccccc2c(=O)n1C` [3-J10, N-[(3-methyl-4-oxo-3,4-dihydroquinazolin-2-yl)methyl]prop-2-enamide] the figure was 88.6%; with `C=CC(=O)N(Cc1ccc(-n2cncn2)cc1)C1CC1` [3-J11, N-cyclopropyl-N-{[4-(1H-1,2,4-triazol-1-yl)phenyl]methyl}prop-2-enamide], 40.7%; with `C=CC(=O)N1CCC(C(=O)Nc2ccc(CC)cc2)CC1` [3-J12, N-(4-ethylphenyl)-1-(prop-2-enoyl)piperidine-4-carboxamide], 85.6%. On to `C=CC(=O)NCc1csc2nccn12` [3-J13, N-({imidazo[2,1-b][1,3]thiazol-3-yl}methyl)prop-2-enamide], for which the viability at 48 h, 25 µM is 76.8%. `C=CC(=O)N1CCOCC2(COCCN2C)C1` (stereo not drawn) [3-J14, 1-{1-methyl-4,8-dioxa-1,11-diazaspiro[5.6]dodecan-11-yl}prop-2-en-1-one]: the viability at 48 h, 25 µM came to 96%.

With `C=CC(=O)NCC1CS(=O)(=O)c2ccccc21` (stereo not drawn) [3-J15, N-[(1,1-dioxo-2,3-dihydro-1lambda6-benzothiophen-3-yl)methyl]prop-2-enamide], the viability at 48 h, 25 µM worked out at 81.2%. The value for `C=CC(=O)Nc1ccc(-n2ccccc2=O)cc1F` [3-J16, N-[2-fluoro-4-(2-oxo-1,2-dihydropyridin-1-yl)phenyl]prop-2-enamide] was 101%; that for `C=CC(=O)NCCS(=O)(=O)c1cccs1` [3-J17, N-[2-(thiophene-2-sulfonyl)ethyl]prop-2-enamide] was 93.4%; that for `C=CC(=O)N1CCC(C(=O)Nc2n[nH]c3cc(C#N)c(C)cc23)CC1` [3-J18, N-(6-cyano-5-methyl-1H-indazol-3-yl)-1-(prop-2-enoyl)piperidine-4-carboxamide] was 90.3%.

Regarding `C=CC(=O)NCc1ccc(N2CC(C)CS2(=O)=O)cc1` (stereo not drawn) [3-J19, N-{[4-(4-methyl-1,1-dioxo-1lambda6,2-thiazolidin-2-yl)phenyl]methyl}prop-2-enamide], the viability at 48 h, 25 µM was determined as 95.4%. On to `C=CC(=O)NC(c1ccc(F)cc1)c1ccn(C)n1` (stereo not drawn) [3-J20, N-[(4-fluorophenyl)(1-methyl-1H-pyrazol-3-yl)methyl]prop-2-enamide], for which the viability at 48 h, 25 µM worked out at 99.9%.

Consider `C=CC(=O)N(Cc1cn2ccccc2n1)C1CC1` [3-J21, N-cyclopropyl-N-({imidazo[1,2-a]pyridin-2-yl}methyl)prop-2-enamide], for which the viability at 48 h, 25 µM came to 73.1%. Regarding `C=CC(=O)NCCC(=O)N1CCN(c2ccccc2Cl)CC1` [3-J22, N-{3-[4-(2-chlorophenyl)piperazin-1-yl]-3-oxopropyl}prop-2-enamide], the viability at 48 h, 25 µM was found to be 88.6%.

Regarding `C=CC(=O)N1CCC(C(O)c2ccnn2C)CC1` (stereo not drawn) [3-K03, 1-{4-[hydroxy(1-methyl-1H-pyrazol-5-yl)methyl]piperidin-1-yl}prop-2-en-1-one], the viability at 48 h, 25 µM worked out at 59%. The value for `C=CC(=O)NCCC(=O)N1CCOC(c2nc(C)cs2)C1` (stereo not drawn) [3-K04, N-{3-[2-(4-methyl-1,3-thiazol-2-yl)morpholin-4-yl]-3-oxopropyl}prop-2-enamide] was 89.7%. For the compound `C=CC(=O)N1CCC(C(=O)NOC2CCCC2)(c2ccccc2)CC1` [3-K06, N-(cyclopentyloxy)-4-phenyl-1-(prop-2-enoyl)piperidine-4-carboxamide], the viability at 48 h, 25 µM is 77.1%. `C=CC(=O)N1CCCC1(COC)C(N)=O` (stereo not drawn) [3-K07, 2-(methoxymethyl)-1-(prop-2-enoyl)pyrrolidine-2-carboxamide]: the viability at 48 h, 25 µM was determined as 143%.

Regarding `C=CC(=O)NCc1ccc(C(=O)N2CCC(c3ccn[nH]3)CC2)cc1` [3-K08, N-({4-[4-(1H-pyrazol-5-yl)piperidine-1-carbonyl]phenyl}methyl)prop-2-enamide], the viability at 48 h, 25 µM is 95.2%. As for `C=CC(=O)N1CCC(n2ccnn2)CC1` [3-K09, 1-[4-(1H-1,2,3-triazol-1-yl)piperidin-1-yl]prop-2-en-1-one], the viability at 48 h, 25 µM turned out to be 65.2%. The value for `C=CC(=O)N1CCCN(S(N)(=O)=O)CC1` [3-K10, 4-(prop-2-enoyl)-1,4-diazepane-1-sulfonamide] was 98.5%. For `C=CC(=O)N1CCOC(c2cnn(C)c2)C1` (stereo not drawn) [3-K11, 1-[2-(1-methyl-1H-pyrazol-4-yl)morpholin-4-yl]prop-2-en-1-one], the viability at 48 h, 25 µM is 49.9%.

For the compound `C=CC(=O)N1CCCCC1c1noc(C2CC2)n1` (stereo not drawn) [3-K12, 1-[2-(5-cyclopropyl-1,2,4-oxadiazol-3-yl)piperidin-1-yl]prop-2-en-1-one], the viability at 48 h, 25 µM came to 105%. The value for `C=CC(=O)NCC(C)(C)C1(O)CCOC1` (stereo not drawn) [3-K13, N-[2-(3-hydroxyoxolan-3-yl)-2-methylpropyl]prop-2-enamide] was 68%. On to `C=CC(=O)N1CCCC(O)(CC(N)=O)C1` (stereo not drawn) [3-K14, 2-[3-hydroxy-1-(prop-2-enoyl)piperidin-3-yl]acetamide], for which the viability at 48 h, 25 µM came to 101%. Consider `C=CC(=O)NCc1cccc(NS(C)(=O)=O)c1` [3-K15, N-[(3-methanesulfonamidophenyl)methyl]prop-2-enamide], for which the viability at 48 h, 25 µM was 31.7%. With `C=CC(=O)N(CC)CC(=O)N1CCc2c(cccc2NC(C)=O)C1` [3-K16, N-[2-(5-acetamido-1,2,3,4-tetrahydroisoquinolin-2-yl)-2-oxoethyl]-N-ethylprop-2-enamide], the viability at 48 h, 25 µM was found to be 90.5%.

Consider `C=CC(=O)N(C)CC(=O)N1CCCCC1c1nc(C)no1` (stereo not drawn) [3-K17, N-methyl-N-{2-[2-(3-methyl-1,2,4-oxadiazol-5-yl)piperidin-1-yl]-2-oxoethyl}prop-2-enamide], for which the viability at 48 h, 25 µM was 47.9%.

Regarding `C=CC(=O)Nc1ccc2oc(CC(C)(C)C)nc2c1` [3-K18, N-[2-(2,2-dimethylpropyl)-1,3-benzoxazol-5-yl]prop-2-enamide], the viability at 48 h, 25 µM is 82.2%. `C=CC(=O)N1CCC(c2ccc(OC)c(F)c2)C1` (stereo not drawn) [3-K19, 1-[3-(3-fluoro-4-methoxyphenyl)pyrrolidin-1-yl]prop-2-en-1-one]: the viability at 48 h, 25 µM turned out to be 48.9%. With `C=CC(=O)NCCCn1cnc2c1CCCC2` [3-K20, N-[3-(4,5,6,7-tetrahydro-1H-1,3-benzodiazol-1-yl)propyl]prop-2-enamide] the figure was 101%; with `C=CC(=O)N(CC)CC(=O)N1CC[S+]([O-])C(C)(C)CC1` (stereo not drawn) [3-K21, N-[2-(7,7-dimethyl-1-oxo-1lambda4,4-thiazepan-4-yl)-2-oxoethyl]-N-ethylprop-2-enamide], 40.1%; with `C=CC(=O)NC1(c2ncon2)CCOCC1` [3-K22, N-[4-(1,2,4-oxadiazol-3-yl)oxan-4-yl]prop-2-enamide], 66.9%. For the compound `C=CC(=O)N1CCC(C(=O)NCc2ncc(N(C)C)cn2)CC1` [3-L03, N-{[5-(dimethylamino)pyrimidin-2-yl]methyl}-1-(prop-2-enoyl)piperidine-4-carboxamide], the viability at 48 h, 25 µM is 68.2%. Regarding `C=CC(=O)Nc1cccc(-c2ccon2)c1` [3-L04, N-[3-(1,2-oxazol-3-yl)phenyl]prop-2-enamide], the viability at 48 h, 25 µM came to 70.4%. Take `C=CC(=O)N(CC)CC(=O)N1CCN(c2ccsc2C#N)CC1` [3-L05, N-{2-[4-(2-cyanothiophen-3-yl)piperazin-1-yl]-2-oxoethyl}-N-ethylprop-2-enamide]: the viability at 48 h, 25 µM amounted to 62.6%. Take `C=CC(=O)NCc1ccc(C(=O)N2CCC[C@H]2C(=O)NC)cc1` [3-L06, (2S)-N-methyl-1-{4-[(prop-2-enamido)methyl]benzoyl}pyrrolidine-2-carboxamide]: the viability at 48 h, 25 µM came to 80.6%. Consider `C=CC(=O)NCC(F)(F)C1(OC)CCC1` [3-L07, N-[2,2-difluoro-2-(1-methoxycyclobutyl)ethyl]prop-2-enamide], for which the viability at 48 h, 25 µM is 82.7%. Turning to `C=CC(=O)N(C)Cc1nc2c(cnn2C)c(=O)[nH]1` [3-L08, N-methyl-N-({1-methyl-4-oxo-1H,4H,5H-pyrazolo[3,4-d]pyrimidin-6-yl}methyl)prop-2-enamide], the viability at 48 h, 25 µM stood at 70.4%.

`C=CC(=O)NC1(c2nc(C)no2)CC1` [3-L09, N-[1-(3-methyl-1,2,4-oxadiazol-5-yl)cyclopropyl]prop-2-enamide]: the viability at 48 h, 25 µM amounted to 46.8%. For `C=CC(=O)Nc1cnoc1C(C)C` [3-L10, N-[5-(propan-2-yl)-1,2-oxazol-4-yl]prop-2-enamide], the viability at 48 h, 25 µM turned out to be 92.6%. The value for `C=CC(=O)N(C)Cc1cccnc1` [3-L11, N-methyl-N-[(pyridin-3-yl)methyl]prop-2-enamide] was 82%; that for `C=CC(=O)N1CCC(C(=O)NCc2cc(=O)n3ccccc3n2)CC1` [3-L12, N-({4-oxo-4H-pyrido[1,2-a]pyrimidin-2-yl}methyl)-1-(prop-2-enoyl)piperidine-4-carboxamide] was 82.7%.

`C=CC(=O)NCC1CCCC1N1CCCS1(=O)=O` (stereo not drawn) [3-L13, N-{[2-(1,1-dioxo-1lambda6,2-thiazolidin-2-yl)cyclopentyl]methyl}prop-2-enamide]: the viability at 48 h, 25 µM was 78.9%. With `C=CC(=O)NCc1cc2cc(C)ccc2o1` [3-L14, N-[(5-methyl-1-benzofuran-2-yl)methyl]prop-2-enamide] the figure was 85.4%.
